Test results taken from patent publication US8354423B2, “Insecticidal spironindane derivatives” (priority 2003, dated 2013).

O=C(N/N=C1\CC2(CCN(C/C=C/c3ccc(Cl)cc3)CC2)c2ccccc21)Nc1ccc(OC(F)(F)F)cc1
melting point: 225 °C
